Test results: US9062024B2, “Nitrogen-containing heterocyclic compound and salt thereof, and a fungicide for agricultural and horticultural use” (Nippon Soda Co., Ltd., priority 2009, dated 2015)

Row | Compound | melting point
1 | c1ccc2c(c1)NCCN=C2c1cnc2ccccc2c1 | 201 to 202 °C
2 | CC(=O)N1CCN=C(c2cnc3ccccc3c2)c2ccccc21 | 187 to 189 °C
3 | CC1(C)CN=C(c2cnc3ccccc3c2)c2ccccc2C1 [Compound B2-3, 4,4-dimethyl-1-(3-quinolinyl)-4,5-dihydro-3H-2-benzazepine] | 115 to 116 °C
4 | CC1(C)CCN=C(c2cnc3ccccc3c2)c2ccccc21 [Compound B2-25, 5,5-dimethyl-1-(3-quinolinyl)-4,5-dihydro-3H-2-benzazepine] | 121 to 123 °C
